PubChem BioAssay AID2060497 (Molecular Pharmacology Branch, DTP, NCI, 2025)
Each block holds one compound with its values, some of them ahead of it.

Test system: 317291-083-R-J1-PDC complex spheroids, viability
Test: Anticancer human tumor 317291-083-R-J1-PDC patient-derived soft tissue sarcoma cell line growth inhibition [GQUAD]
Settings: for IC50: curve of first compound; for viability, T/C: stronger effect = lower value
Description: DNA G-quadruplex Stabilizer Agents in Combinations in Complex Spheroids
A high-throughput screen of multi-cell type tumor spheroids was designed to identify active combinations of DNA G-quadruplex stabilizer agents and targeted small molecules. Complex spheroids include a stromal component modeled by human endothelial cells (HUVEC) and fibroblasts modeled by human mesenchymal stem cells (MSCs). The concentration ranges selected for each drug and investigational agent were based upon clinically achievable concentrations if the clinical Cmax of the agent was known.
Compounds. The drugs and investigational agents: pidnarulex (CX-5461; NSC782164), APTO-253 (NSC789042), BRACO-19 (NSC847499), peposertib (NSC802822), ceralasertib (NSC780249), elimusertib (NSC800525), camonsertib (NSC841442), AZD-1390 (NSC803789), olaparib (NSC753686), talazoparib (NSC767125), ART-558 (NSC835418), sotorasib (NSC818433), MRTX-1133 (NSC836407), SN-38 (NSC673596), topotecan (NSC609699), etoposide (NSC141540), doxorubicin (NSC123127), gemcitabine (NSC613327), 5-fluorouracil (NSC19893), paclitaxel (NSC125973), vemurafenib (NSC761431), panobinostat (NSC761190), R-306465 (JNJ-16241199; NSC773264), adavosertib (NSC754352), TP-3654 (NSC805149), carboplatin (NSC241240), KSQ-4279 (NSC840948), and staurosporine (NSC755774) were obtained from the National Cancer Institute (NCI) Developmental Therapeutics Program Chemical Repository (34). The FDA-approved anticancer drug set is available from the NCI Developmental Therapeutics Program. […] The stock solutions were prepared in dimethyl sulfoxide (DMSO, Sigma-Aldrich, St. Louis, MO, cat. D2650) at 800-fold the tested concentration and stored at -70 degrees C prior to their use. All drugs and investigational agents were tested over a range starting from a high concentration at or near the clinical Cmax and decreasing in half-log increments. If the clinical Cmax for an agent had not been determined, the highest concentration tested was 10 microM.
2.3 Cell Culture. All cells were maintained in an incubator at 37 degrees C and 5% CO2 with 95% humidity. The PDC lines were cultured according to standard operating procedures established by the NCI PDMR. All PDCs were thawed and cultured in Matrigel-coated flasks prepared with a working solution of 1X Ham's F-12 nutrient mix, without supplementation (Invitrogen, cat. 11765054), 100 U/mL penicillin-streptomycin (Invitrogen, cat. 15140122), and 2.5% Matrigel (Corning Inc., cat. 354248) for the first three passages. The 857933-349-R-J2-PDC line was cultured in 6C/Colon 1B media, which includes advanced DMEM/F-12 (Thermo Fisher Scientific, cat. 12634028), 10 mM HEPES (Thermo Fisher Scientific, cat. 15630080), 1X GlutaMAX supplement (Thermo Fisher Scientific, cat. 35050061), 0.1 mg/mL primocin (InvivoGen, cat. ant-pm-2), 10% defined fetal bovine serum, heat inactivated (HyClone Laboratories Inc., cat. SH30070.03HI), 50% L-WRN conditioned media (ATCC, cat. CRL-3276), 1.25 mM N-Acetyl-L-cysteine (Sigma-Aldrich, cat. A9165), 10 mM nicotinamide (Sigma-Aldrich, cat. N0636), 1X B-27 supplement (Thermo Fisher Scientific, cat. 17504044), 1X N-2 supplement (Thermo Fisher Scientific, cat. 17502048), 10 microM Y-27632 dihydrochloride (Tocris Bioscience, cat. 1254), and 50 ng/mL human EGF recombinant protein (Thermo Fisher Scientific, cat. PHG0311). The 485176-168-R4-J1-PDC line was cultured in Panc media, which includes all 6C/Colon 1B media components plus 100 ng/mL human FGF-10 (Thermo Fisher Scientific, cat. 100-26), 500 nM SB-431542 (Selleckchem, cat. S1067), and gastrin (Tocris, cat. 3006).
[…]

[1] = second compound 0.0316 µM, first compound 0.0316 µM
[2] = second compound 0.0316 µM, first compound 0.1 µM
[3] = second compound 0.0316 µM, first compound 0.316 µM
[4] = second compound 0.0316 µM, first compound 1 µM
[5] = second compound 0.0316 µM, first compound 3.16 µM
[6] = second compound 0.0316 µM, first compound 10 µM
[7] = second compound 0.1 µM, first compound 0.0316 µM
[8] = second compound 0.1 µM, first compound 0.1 µM
[9] = second compound 0.1 µM, first compound 0.316 µM
[10] = second compound 0.1 µM, first compound 1 µM
[11] = second compound 0.1 µM, first compound 3.16 µM
[12] = second compound 0.1 µM, first compound 10 µM
[13] = second compound 0.316 µM, first compound 0.0316 µM
[14] = second compound 0.316 µM, first compound 0.1 µM
[15] = second compound 0.316 µM, first compound 0.316 µM
[16] = second compound 0.316 µM, first compound 1 µM
[17] = second compound 0.316 µM, first compound 3.16 µM
[18] = second compound 0.316 µM, first compound 10 µM
[19] = second compound 1 µM, first compound 0.0316 µM
[20] = second compound 1 µM, first compound 0.1 µM
[21] = second compound 1 µM, first compound 0.316 µM
[22] = second compound 1 µM, first compound 1 µM
[23] = second compound 1 µM, first compound 3.16 µM
[24] = second compound 1 µM, first compound 10 µM
[25] = second compound 3.16 µM, first compound 0.0316 µM
[26] = second compound 3.16 µM, first compound 0.1 µM
[27] = second compound 3.16 µM, first compound 0.316 µM
[28] = second compound 3.16 µM, first compound 1 µM
[29] = second compound 3.16 µM, first compound 3.16 µM
[30] = second compound 3.16 µM, first compound 10 µM
[31] = second compound 10 µM, first compound 0.0316 µM
[32] = second compound 10 µM, first compound 0.1 µM
[33] = second compound 10 µM, first compound 0.316 µM
[34] = second compound 10 µM, first compound 1 µM
[35] = second compound 10 µM, first compound 3.16 µM
[36] = second compound 10 µM, first compound 10 µM
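Further: spheroids exposed to compounds for one week before readout.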
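Wherever viability, T/C is given: percent viability relative to DMSO vehicle wells taken as 100%.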

IC50 (second compound 0.0316 µM): > 10 µM
IC50 (second compound 0.1 µM): 2.17 µM
IC50 (second compound 0.316 µM): < 0.0316 µM
IC50 (second compound 1 µM): < 0.0316 µM
IC50 (second compound 3.16 µM): < 0.0316 µM
IC50 (second compound 10 µM): < 0.0316 µM
Compound: O=C(c1cc(Cc2n[nH]c(=O)c3ccccc23)ccc1F)N1CCN(C(=O)C2CC2)CC1 + Cc1cnc(CNC(=O)c2c(=O)c3ccc(N4CCCN(C)CC4)nc3n3c2sc2ccccc23)cn1
viability, T/C [1]: 101%
viability, T/C [2]: 92.4%
viability, T/C [3]: 89.7%
viability, T/C [4]: 77.5%
viability, T/C [5]: 67.7%
viability, T/C [6]: 59.3%
viability, T/C [7]: 88.3%
viability, T/C [8]: 72.7%
viability, T/C [9]: 64.5%
viability, T/C [10]: 57.6%
viability, T/C [11]: 53.3%
viability, T/C [12]: 31.2%
viability, T/C [13]: 44.7%
viability, T/C [14]: 43.4%
viability, T/C [15]: 57.1%
viability, T/C [16]: 33.8%
viability, T/C [17]: 39.2%
viability, T/C [18]: 46%
viability, T/C [19]: 30%
viability, T/C [20]: 38.5%
viability, T/C [21]: 51.5%
viability, T/C [22]: 26.6%
viability, T/C [23]: 24.2%
viability, T/C [24]: 19.6%
viability, T/C [25]: 17.2%
viability, T/C [26]: 14.6%
viability, T/C [27]: 64.8%
viability, T/C [28]: 39.8%
viability, T/C [29]: 32.8%
viability, T/C [30]: 14.8%
viability, T/C [31]: 31.1%
viability, T/C [32]: 16.8%
viability, T/C [33]: 19.1%
viability, T/C [34]: 36.2%
viability, T/C [35]: 20.5%
viability, T/C [36]: 15.2%

Compound: C=CC(=O)N1CCN(c2nc(=O)n(-c3c(C)ccnc3C(C)C)c3nc(-c4c(O)cccc4F)c(F)cc23)C(C)C1 (stereo unspecified) + Cc1[nH]c2ccc(F)cc2c1-c1nc2c3cccnc3c3ncccc3c2[nH]1
IC50 (second compound 0.0316 µM): > 10 µM
IC50 (second compound 0.1 µM): > 10 µM
IC50 (second compound 0.316 µM): > 10 µM
IC50 (second compound 1 µM): > 10 µM
IC50 (second compound 3.16 µM): > 10 µM
IC50 (second compound 10 µM): 5.95 µM
viability, T/C [1]: 112%
viability, T/C [2]: 99.2%
viability, T/C [3]: 113%
viability, T/C [4]: 89.5%
viability, T/C [5]: 102%
viability, T/C [6]: 60.8%
viability, T/C [7]: 110%
viability, T/C [8]: 97.4%
viability, T/C [9]: 104%
viability, T/C [10]: 116%
viability, T/C [11]: 93.4%
viability, T/C [12]: 71.8%
viability, T/C [13]: 101%
viability, T/C [14]: 113%
viability, T/C [15]: 105%
viability, T/C [16]: 99.4%
viability, T/C [17]: 104%
viability, T/C [18]: 85.3%
viability, T/C [19]: 109%
viability, T/C [20]: 102%
viability, T/C [21]: 110%
viability, T/C [22]: 104%
viability, T/C [23]: 88.9%
viability, T/C [24]: 73.2%
viability, T/C [25]: 93.3%
viability, T/C [26]: 91.4%
viability, T/C [27]: 96%
viability, T/C [28]: 93.1%
viability, T/C [29]: 74.7%
viability, T/C [30]: 51.5%
viability, T/C [31]: 58.4%
viability, T/C [32]: 69.9%
viability, T/C [33]: 78.5%
viability, T/C [34]: 74.3%
viability, T/C [35]: 74.9%
viability, T/C [36]: 32.7%

Compound: C#Cc1c(F)ccc2cc(O)cc(-c3ncc4c(N5CC6CCC(C5)N6)nc(OCC56CCCN5CC(F)C6)nc4c3F)c12 (stereo unspecified) + Cc1[nH]c2ccc(F)cc2c1-c1nc2c3cccnc3c3ncccc3c2[nH]1
IC50 (second compound 0.0316 µM): 6.33 µM
IC50 (second compound 0.1 µM): 5.6 µM
IC50 (second compound 0.316 µM): 4.53 µM
IC50 (second compound 1 µM): 3.28 µM
IC50 (second compound 3.16 µM): < 0.0316 µM
IC50 (second compound 10 µM): 1.36 µM
viability, T/C [1]: 109%
viability, T/C [2]: 92.8%
viability, T/C [3]: 97.8%
viability, T/C [4]: 99%
viability, T/C [5]: 82.2%
viability, T/C [6]: 28.6%
viability, T/C [7]: 90.9%
viability, T/C [8]: 106%
viability, T/C [9]: 94.9%
viability, T/C [10]: 108%
viability, T/C [11]: 75.6%
viability, T/C [12]: 23.9%
viability, T/C [13]: 80.3%
viability, T/C [14]: 58.9%
viability, T/C [15]: 79.3%
viability, T/C [16]: 59.2%
viability, T/C [17]: 72.5%
viability, T/C [18]: 6%
viability, T/C [19]: 66.5%
viability, T/C [20]: 52.8%
viability, T/C [21]: 64.2%
viability, T/C [22]: 54.2%
viability, T/C [23]: 52.5%
viability, T/C [24]: 3%
viability, T/C [25]: 46.6%
viability, T/C [26]: 36.7%
viability, T/C [27]: 35.3%
viability, T/C [28]: 33.7%
viability, T/C [29]: 35.2%
viability, T/C [30]: 0.12%
viability, T/C [31]: 47.8%
viability, T/C [32]: 60.2%
viability, T/C [33]: 55.2%
viability, T/C [34]: 52.9%
viability, T/C [35]: 42%
viability, T/C [36]: 0.16%
